Laboratory results as given in patent US20220047678A1, “Combination Therapy for Treatment of Liver Disease” (Gilead Sciences, Inc., priority 2020, published 2022).

Legend:
[1] = Safety assessments (adverse events, laboratory abnormalities, vital signs) in 24-week open-label clinical study; assay type: in vivo, human
Description: This is a proof of concept, open-label study evaluating the safety, tolerability, and efficacy of monotherapy and combination regimens in subjects with NASH. Subjects meeting the study's entry criteria are randomly assigned in a 1:1:1:1:1 ratio to 1 of 5 treatment groups, with approximately 20 subjects in each group, as shown in the FIG. 2. Randomization is stratified by the presence or absence of type 2 diabetes mellitus, as determined by medical history or based on the Screening laboratory values if previously undiagnosed (hemoglobin A1c [HbA1c]≥6.5%). The study may last up to 35 weeks, which includes a 2-week Screening period, a 2 week Pre-Treatment period, up to a 24-week Treatment period, and a 7-week Follow-Up period.
Study drug dosing and administration is as follows, based on treatment group randomization as summarized in FIG. 2: • Treatment Group A: Semaglutide administered subcutaneously with pre-filled pen-injector once weekly. • Treatment Group B: Semaglutide administered subcutaneously with pre-filled pen-injector once weekly, one firsocostat 20 mg tablet, administered orally once daily without regard to food. • Treatment Group C: Semaglutide administered subcutaneously with pre-filled pen-injector once weekly, one cilofexor 30 mg tablet, administered orally once daily without regard to food. • Treatment Group D: Semaglutide administered subcutaneously with pre-filled pen-injector once weekly, one cilofexor 100 mg tablet, administered orally once daily without regard to food. • Treatment Group E: Semaglutide administered subcutaneously with pre-filled pen-injector once weekly, one firsocostat 20 mg tablet administered orally once daily and one cilofexor 30 mg tablet administered orally once daily, both without regard to food.
Semaglutide was administered by subcutaneous injection once weekly with a prefilled pen-injector and was initiated at a starting dose of […], which was increased at 4-week intervals (to 0.5 mg, 1.0 mg, and 1.7 mg) until the recommended target dose of 2.4 mg was reached (from week 17 onwards). Patients who could not tolerate the planned dose-escalation schedule were encouraged to extend any single dose step for a maximum of one additional week, and to re-attempt dose escalation to 2.4 mg at least once. Cilofexor and firsocostat were given orally once daily with or without food.
Safety assessments included adverse events, clinical laboratory assessments, vital signs, electrocardiograms (ECG), and physical examination. Clinical and laboratory adverse events were coded using the Medical Dictionary for Regulatory Activities (MedDRA), version 23.0.
Safety analyses were performed on the safety analysis set, which included all patients who took at least one dose of any study drug. Efficacy analyses were performed on the full analysis set (FAS), which included all randomized patients who received at least one dose of any study drug. Since all dosed subjects were randomized, these two analysis sets included the same patients.

[2] = Serum lipids, change from baseline to week 24; assay type: in vivo, human; settings: LS mean
Description: In general, subjects fast (no food or drink, except water) for approximately 10 hours prior to the blood sample collection.
Additional tests include HIV-1 (reflex to HIV-1 RNA), HBV (HBsAg), HCV (reflex to HCV RNA) serology, homeostasis model assessment of Insulin resistance (HOMA-IR, based on fasting glucose and insulin), eGFR as calculated by MDRD, HbA1c, C-peptide, calcitonin, insulin, lipid panel, genomic sample collection, ELF™ Test, and FibroTest®. Biomarker tests include, but are not limited to C-reactive protein (CRP), NMR LipoProfile®, apolipoproteins, and adiponectin.
Imaging assessments (MRI-PDFF, liver stiffness by 2-D magnetic resonance elastography [MRE] and TE) were conducted at screening (or within 4 weeks prior to screening), and at weeks 12 and 24. TE was performed by experienced operators, and MRI-PDFF and MRE images were analyzed by a central reader as previously described [Patel et al. Hepatology. 2020; 72(1):58-71; Loomba et al. Gastroenterology. 2018; 155(5):1463-1473; Loomba et al. Hepatology. 2020 Nov. 10. doi: 10.1002/hep.31622]. Serum samples were collected at screening, baseline, and every 4 weeks through to week 24 for clinical laboratory values; blood biomarkers were assessed at screening, baseline, and weeks 12 and 24.
All protocol-defined, efficacy analyses were exploratory in nature and descriptive statistics are provided. Comparative analyses between combination regimens and semaglutide monotherapy were conducted post-hoc. For evaluation of changes from baseline to week 24, analysis of covariance (ANCOVA) with adjustment for baseline value and diabetes status was used, and least-squares (LS) means, LS mean differences, associated 95% confidence intervals (CI), and p-values were calculated. Proportions of binary responders were compared by Fisher's exact test.

Molecule `CC[C@H](C)[C@H](NC(=O)[C@H](Cc1ccccc1)NC(=O)[C@H](CCC(=O)O)NC(=O)[C@H](CCCCNC(=O)COCCOCCNC(=O)COCCOCCNC(=O)CC[C@H](NC(=O)CCCCCCCCCCCCCCCCC(=O)O)C(=O)O)NC(=O)[C@H](C)NC(=O)[C@H](C)NC(=O)[C@H](CCC(N)=O)NC(=O)CNC(=O)[C@H](CCC(=O)O)NC(=O)[C@H](CC(C)C)NC(=O)[C@H](Cc1ccc(O)cc1)NC(=O)[C@H](CO)NC(=O)[C@H](CO)NC(=O)[C@@H](NC(=O)[C@H](CC(=O)O)NC(=O)[C@H](CO)NC(=O)[C@@H](NC(=O)[C@H](Cc1ccccc1)NC(=O)[C@@H](NC(=O)CNC(=O)[C@H](CCC(=O)O)NC(=O)C(C)(C)NC(=O)[C@@H](N)Cc1cnc[nH]1)[C@@H](C)O)[C@@H](C)O)C(C)C)C(=O)N[C@@H](C)C(=O)N[C@@H](Cc1c[nH]c2ccccc12)C(=O)N[C@@H](CC(C)C)C(=O)N[C@H](C(=O)N[C@@H](CCCNC(=N)N)C(=O)NCC(=O)N[C@@H](CCCNC(=N)N)C(=O)NCC(=O)O)C(C)C` [Semaglutide 2.4 mg, Semaglutide] has an Abdominal distension ([1]; human, in vivo) of 0 n, a Gastroenteritis ([1]; human, in vivo) of 0 n and a Gastroesophageal reflux disease ([1]; human, in vivo) of 0 n. For the same molecule, the Hypoglycaemia ([1]; human, in vivo) was 0 n, the “Laboratory abnormalities, Grade 3” value ([1]; human, in vivo) was 0 n and the “Laboratory abnormalities, Grade 4” value ([1]; human, in vivo) was 0 n. For the same molecule, the “Pruritus (adverse event of interest)” value ([1]; human, in vivo) was 0 n, the “Serious adverse events (nature)” value ([1]; human, in vivo) was “grade 3 diarrhea and vomiting” and the Death ([1]; patients) was 0 n. For the same molecule, the “HDL cholesterol, least squares mean change from baseline to week 24” value [2] was -1 mg/dL, the “LDL cholesterol, least squares mean change from baseline to week 24” value [2] was -9 mg/dL and the “Total cholesterol, least squares mean change from baseline to week 24” value [2] was -15 mg/dL. The “Triglycerides, least squares mean change from baseline to week 24” value [2] was -28 mg/dL and the “VLDL cholesterol, least squares mean change from baseline to week 24” value [2] was -7 mg/dL.
